# Assay results: patent EP4800012A1, “COMPOUND ACTING AS PARP7 INHIBITOR” (Dovetree Medicines Unus, Inc., priority 2023, dated 2025)
# Experiments:
# [1] = system: NCI-H1373 cells; assay: Inhibition on NCI-H1373 cell proliferation (Cell-Titer-Glo); type: cell-based; details: Homo sapiens, 144 h; NCI-H1373 cells, incubation for 6 days, Cell-Titer-Glo; read-out: NCI-H1373 cell proliferation inhibition IC50
# Method: The inhibitory effect of the compound on PARP7 was evaluated by testing the inhibitory effect of the compound on NCI-H1373 cell proliferation.
# NCI-H1373 cells (ATCC, CRL-5866) were cultured in a complete medium, namely, a RPMI-1640 medium (Gibco, 22400089) containing 10% fetal bovine serum (Corning, 35-081-CV).
# Negative control wells and positive control wells were added with 50 nL DMSO (Sigma, D2650), respectively.
# In "Day 0" detection plate, NCI-H1373 cells were seeded at a density of 600 cells/well (50 µL) in a complete medium into the Day 0 test wells of a 384-well detection plate (Grenier, 781091). Then, 25 µL of Cell-Titer-Glo reagent (Promega, G7573) was added to each well, followed by centrifugation at 1000 rpm at room temperature for 1 minute and incubation at room temperature under shaded conditions for 10 min. Chemiluminescence signals were collected using an Envision (Perkin Elmer, EnVision 2105) to obtain the average value of the Day 0 test values.
# In "compound detection plate", NCI-H1373 cells were seeded at a density of 600 cells/well (50 µL) in a complete medium into the negative control wells and the compound detection wells of a 384-well detection plate (Grenier, 781091), and 50 µL of cell culture medium was added to the positive control wells, followed by centrifugation at 1000 rpm at room temperature for 1 minute and placing in a cell incubator at 37°C, 5% CO2 for incubation for 6 days. […] Chemiluminescence signals were collected using an Envision (Perkin Elmer, EnVision 2105). The test values for each compound well, negative control well, and positive control well were obtained.
# The proliferation inhibition ratio formula is as follows: [formula]
# The average value of the negative control = the average value of the Day 6 test values of each negative control well minus the average value of the Day 0 test values
# The average value of the positive control = the average value of the Day 6 test values of each positive control well
# The average value of the compound test = (the Day 6 test value of compound test well 1 + the Day 6 test value of compound test well 2)/2 - the average value of the Day 0 test values
# [2] = target: T1, PARP7 (Homo sapiens, UniProt Q7Z3E1); assay: PARP7 TR-FRET binding inhibition (displacement of probe RBN011147)
# T1 construct: purchased BPS 80527
# T1 sequence (Q7Z3E1 1-657): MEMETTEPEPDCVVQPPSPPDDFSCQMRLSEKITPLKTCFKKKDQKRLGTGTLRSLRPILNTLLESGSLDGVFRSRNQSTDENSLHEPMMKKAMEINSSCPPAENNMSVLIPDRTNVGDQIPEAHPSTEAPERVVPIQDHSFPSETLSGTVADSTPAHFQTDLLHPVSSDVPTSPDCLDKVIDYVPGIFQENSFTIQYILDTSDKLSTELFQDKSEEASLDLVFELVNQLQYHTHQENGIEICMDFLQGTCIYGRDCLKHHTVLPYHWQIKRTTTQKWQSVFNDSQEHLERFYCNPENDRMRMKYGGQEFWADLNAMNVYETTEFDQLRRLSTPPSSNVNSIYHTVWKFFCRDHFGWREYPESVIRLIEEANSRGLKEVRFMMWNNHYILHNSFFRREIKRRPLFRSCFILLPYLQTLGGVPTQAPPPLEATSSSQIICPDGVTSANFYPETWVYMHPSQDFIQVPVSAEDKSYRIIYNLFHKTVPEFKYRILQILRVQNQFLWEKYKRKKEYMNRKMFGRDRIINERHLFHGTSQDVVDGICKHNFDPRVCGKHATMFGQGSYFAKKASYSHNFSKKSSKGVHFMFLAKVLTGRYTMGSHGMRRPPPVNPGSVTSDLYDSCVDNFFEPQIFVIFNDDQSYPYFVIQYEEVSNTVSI
# Method: The ability of the compound to substitute the probe RBN011147 (Wigle et al., 2020, Cell Chemical Biology 27, 877-887) was tested by a TR-FRET method, and IC50 was calculated to evaluate the binding ability of the compound to PARP7. […]
# [3] = target: T1, PARP7; assay: Inhibition of the compound on PARP7 protein activity (ADP-ribosylation, chemiluminescence); type: biochemical
# [4] = TR-FRET, Biotin-labeled probe RBN011147; read-out: PARP7 binding inhibition IC50
# [5] = Histone H1 coated plate, Biotin-Labeled NAD+, 2 h at room temperature, chemiluminescence; read-out: PARP7 activity inhibition IC50
Structure (SMILES),IC50 [1] [nM],"IC50 [2, 4] [nM]","IC50 [3, 5] [nM]","IC50 ([2]; read-out: PARP7 binding inhibition IC50; TR-FRET, Biotin-labeled probe RBN011147) [nM]","IC50 ([3]; read-out: PARP7 activity inhibition IC50; Histone H1 coated plate, Biotin-Labeled NAD+, 2 h at room temperature, chemiluminescence) [nM]"
CC(CCCNC(=O)c1ncc(-c2ncc(C(F)(F)F)s2)cc1F)Nc1cn[nH]c(=O)c1C(F)(F)F (stereo not drawn) [Example 75],< 300,< 10,< 3,–,–
Cc1c(CCC(=O)Nc2ncc(-c3ncc(C(F)(F)F)cn3)cc2F)c[nH]c(=O)c1C(F)(F)F [Example 76],> 3000,10 to 30,3 to 10,–,–
CC(CCCNC(=O)c1ccc(-c2ncc(C(F)(F)F)s2)cc1F)Nc1cn[nH]c(=O)c1C(F)(F)F (stereo not drawn) [Example 77],< 300,< 10,< 3,–,–
CC(CCCNC(=O)c1ccc(-c2nc(C(F)(F)F)no2)cc1)Nc1cn[nH]c(=O)c1C(F)(F)F (stereo not drawn) [Example 78],> 3000,10 to 30,3 to 10,–,–
CC(CCCNC(=O)c1ccc(-c2cc(C(F)(F)F)on2)cc1)Nc1cn[nH]c(=O)c1C(F)(F)F (stereo not drawn) [Example 79],> 3000,< 10,3 to 10,–,–
CC(CCCNC(=O)c1ccc(-c2csc(C(F)(F)F)n2)cc1)Nc1cn[nH]c(=O)c1C(F)(F)F (stereo not drawn) [Example 80],> 3000,30 to 100,10 to 30,–,–
CC(CCCNC(=O)c1ccc(-c2nc(C(F)(F)F)cs2)cc1)Nc1cn[nH]c(=O)c1C(F)(F)F (stereo not drawn) [Example 81],> 3000,30 to 100,30 to 100,–,–
CC(CCCNC(=O)c1ccc(-c2nnc(C(F)(F)F)s2)cc1)Nc1cn[nH]c(=O)c1C(F)(F)F (stereo not drawn) [Example 82],> 3000,30 to 100,3 to 10,–,–
CC(CCCNC(=O)c1ncc(-c2ncc(C(F)(F)F)cn2)s1)Nc1cn[nH]c(=O)c1C(F)(F)F (stereo not drawn) [Example 151],> 3000,30 to 100,3 to 10,–,–
CC(CCCNC(=O)c1ccc(-c2ncc(C3CCCC3)s2)cc1)Nc1cn[nH]c(=O)c1C(F)(F)F (stereo not drawn) [Example 155],1000 to 3000,10 to 30,< 3,–,–
O=C(NCCC[C@H]1CCN1c1cn[nH]c(=O)c1C(F)(F)F)c1cnc(-c2ncc(C(F)(F)F)cn2)cn1 [Example 164],> 3000,–,–,> 100,> 100
CC(CCCNC(=O)c1cnc(-n2cc(C(F)(F)F)cn2)cn1)Nc1cn[nH]c(=O)c1C(F)(F)F (stereo not drawn) [Example 175],300 to 1000,10 to 30,< 3,–,–

# Second part, led by results:
IC50 [1] [nM],"IC50 [2, 4] [nM]","IC50 [3, 5] [nM]",Structure (SMILES),"IC50 ([2]; read-out: PARP7 binding inhibition IC50; TR-FRET, Biotin-labeled probe RBN011147) [nM]","IC50 ([3]; read-out: PARP7 activity inhibition IC50; Histone H1 coated plate, Biotin-Labeled NAD+, 2 h at room temperature, chemiluminescence) [nM]"
< 300,< 10,< 3,CC(CCCNC(=O)c1ccc(-n2cc(C(F)(F)F)cn2)cc1F)Nc1cn[nH]c(=O)c1C(F)(F)F (stereo not drawn) [Example 176],–,–
1000 to 3000,< 10,< 3,CC(CCCNC(=O)c1ccc(-c2csc(C(F)(F)F)n2)nc1)Nc1cn[nH]c(=O)c1C(F)(F)F (stereo not drawn) [Example 177],–,–
> 3000,10 to 30,< 3,CC(CCCNC(=O)c1cnc(-c2cscn2)c(F)c1)Nc1cn[nH]c(=O)c1C(F)(F)F (stereo not drawn) [Example 178],–,–
> 3000,10 to 30,< 3,CC(CCCNC(=O)c1ccc(-c2cscn2)cc1F)Nc1cn[nH]c(=O)c1C(F)(F)F (stereo not drawn) [Example 179],–,–
> 3000,30 to 100,3 to 10,CC(CCCNC(=O)c1ncc(-c2cscn2)cc1F)Nc1cn[nH]c(=O)c1C(F)(F)F (stereo not drawn) [Example 182],–,–
300 to 1000,< 10,< 3,CC(CCCNC(=O)c1ncc(-n2cc(C(F)(F)F)cn2)cc1F)Nc1cn[nH]c(=O)c1C(F)(F)F (stereo not drawn) [Example 183],–,–
300 to 1000,< 10,< 3,CC(CCCNC(=O)c1cnc(-c2ncc(C(F)(F)F)s2)c(F)c1)Nc1cn[nH]c(=O)c1C(F)(F)F (stereo not drawn) [Example 184],–,–
